Structures are written as SMILES. Where a SMILES comes first, the peptide text is derived from it.

This is an account of results in publication PMC11191095, “QSAR Reveals Decreased Lipophilicity of Polar Residues Determines the Selectivity of Antimicrobial Peptide Activity” (ACS Omega, 2024).

What all share (assay): microbe, parasite or virus in culture
Test [1] concerns E. coli NCTC 12923. The test is classed as cell-based, Escherichia coli. As to conditions: NCTC 12923, 20 h. On the procedure: (§1) Antimicrobial activity was evaluated against a panel of 18 pathogens consisting of eight Gram-negative strains (E. coli NCTC 12923, E. coli LEC001, Pseudomonas aeruginosa PAO1, P. aeruginosa NCTC 13437, Acinetobacter baumannii ATCC 17978, A. baumannii AYE, Klebsiella pneumoniae M6, K. pneumoniae NCTC 13368), four Gram-positive strains (Staphylococcus aureus ATCC 9144, S. aureus NCTC 13616, S. aureus USA300, S. aureus 1199B) and six fungi (Candida auris TDG 1912, C. albicans NCPF 8018, C. krusei NCPF 3876, C. tropicalis NCPF 8760, and C. parapsilosis NCPF 3209). Pathogens were grown in noncation adjusted Mueller Hinton broth (MHB, for bacteria) or Roswell Park Memorial Institute (RPMI 1640) + 2% glucose (for fungi) at 37 °C with 180 rpm shaking and maintained on solid media (tryptic soy agar for bacteria and Sabouraud dextrose agar for fungi). For an antibiogram, see Suppl.
(§2) The 46 peptides were serially diluted (128 to 2 μg/mL) in media down polypropylene 96-well plates. Bacteria or fungi, diluted from an overnight culture to an OD600 of 0.01, were added to the serially diluted peptides at a 1:1 ratio resulting in a starting cell density of ∼5 × 10^5 CFU/mL. Plates were incubated at 37 °C for 20 h, and the optical density was determined spectrophotometrically at 600 nm. Minimum inhibition concentrations (MICs) were determined from a minimum of three biological repeats and are reported in μg/mL as well as μM. […] The MIC50 or MIC90 is defined as the lowest peptide concentration that results in 50% or 90% growth inhibition over a 20 h treatment period, respectively.

The test system of test [2] is E. coli LEC001. In kind it is cell-based, Escherichia coli. As to conditions: LEC001, 20 h. The method, then:
as §1, §2

Test [3] has as its system S. aureus (MRSA) 1199B. In kind it is cell-based, Staphylococcus aureus. Conditions: S. aureus (MRSA) 1199B (R); shown in µM. On the procedure: as §1, §2
Test [4] has as its system A. baumannii ATCC 17978. The test is classed as cell-based, Acinetobacter baumannii. As to conditions: ATCC 17978, 20 h. The method, then: as §1, §2
The subject of test [5] is A. baumannii AYE. The test is classed as cell-based, Acinetobacter baumannii. Conditions: AYE, 20 h. On the procedure: as §1, §2
Test [6] concerns C. albicans NCPF 3281. In kind it is cell-based. As to conditions: NCPF 3281, 20 h. The method, then: as §1, §2
Test [7] concerns C. krusei NCPF 3876. The test is classed as cell-based. As to conditions: NCPF 3876, 20 h. On the procedure:
as §1, §2

Test [8] has as its system C. parapsilosis NCPF 3209. In kind it is cell-based. As to conditions: NCPF 3209, 20 h. The method, then: as §1, §2
Test [9] has as its system C. tropicalis NCPF 8760. In kind it is cell-based. Conditions: NCPF 8760, 20 h. The method, then:
as §1, §2

Test [10] concerns C. glabrata NCPF 8018. The test is classed as cell-based. As to conditions: NCPF 8018, 20 h. The method, then: as §1, §2
Test [11] concerns C. auris TDG 1912. The test is classed as cell-based, Candida auris. Conditions: TDG 1912, 20 h. The method, then: as §1, §2
Test [12] deals with K. pneumoniae NCTC 13368. The test is classed as cell-based, Klebsiella pneumoniae. Conditions: NCTC 13368, 20 h. On the procedure: as §1, §2
The subject of test [13] is K. pneumoniae M6. In kind it is cell-based, Klebsiella pneumoniae. Conditions: M6, 20 h. The method, then:
as §1, §2

Test [14] has as its system S. aureus (MSSA) ATCC 9144. The test is classed as cell-based, Staphylococcus aureus. Conditions: ATCC 9144, 20 h. On the procedure: as §1, §2
For test [15], the system named is S. aureus (MRSA) NCTC 13616. In kind it is cell-based, Staphylococcus aureus. As to conditions: NCTC 13616, 20 h. On the procedure:
as §1, §2

For test [16], the system named is S. aureus (MRSA) USA300. The test is classed as cell-based, Staphylococcus aureus. Conditions: USA300, 20 h. On the procedure: as §1, §2
The test system of test [17] is P. aeruginosa NCTC 13437. The test is classed as cell-based, Pseudomonas aeruginosa. Conditions: NCTC 13437, 20 h. On the procedure: as §1, §2
Test [18] has as its system P. aeruginosa PAO1. The test is classed as cell-based, Pseudomonas aeruginosa. Conditions: PAO1, 20 h. The method, then:
as §1, §2

Regarding `CC[C@H](C)[C@H](NC(=O)[C@H](CCCCN)NC(=O)[C@H](CC(C)C)NC(=O)CNC(=O)[C@H](C)NC(=O)[C@H](CCCCN)NC(=O)[C@H](CC(C)C)NC(=O)[C@H](C)NC(=O)[C@H](CCCCN)NC(=O)CNC(=O)[C@H](CC(C)C)NC(=O)[C@@H](N)Cc1ccccc1)C(=O)NCC(=O)N[C@@H](CO)C(=O)N[C@@H](Cc1c[nH]cn1)C(=O)N[C@@H](CC(C)C)C(N)=O` [CPF-P2a] (H-FLGKALKAGLKIGSHL-NH2), the “Modal MIC” value in [1] is listed as 18.6 µM; in test [2], 37.1 µM; in [3] it was more than 74 µM; in test [4], 18.6 µM; in test [5], 37.1 µM. The “Modal MIC50” value in [6], in test [7], in test [8], in test [9], in test [10] and in test [11] was more than 74 µM each time. Besides, the “Modal MIC90” value in test [6], in [7], in test [8], in test [9], in test [10] and in test [11] was more than 74 µM in each case.
For `CC[C@H](C)[C@H](NC(=O)[C@H](CCCCN)NC(=O)[C@H](CO)NC(=O)[C@H](C)NC(=O)[C@H](Cc1c[nH]c2ccccc12)NC(=O)CN)C(=O)NCC(=O)N[C@@H](CCC(N)=O)C(=O)N[C@H](C(=O)N[C@@H](CC(C)C)C(=O)NCC(=O)N[C@@H](CCCCN)C(=O)N[C@H](C(=O)N[C@@H](C)C(=O)N[C@@H](CCCCN)C(=O)N[C@H](C(=O)NCC(=O)N[C@@H](CC(C)C)C(=O)N[C@@H](CCCCN)C(=O)N[C@@H](CCC(=O)O)C(=O)N[C@@H](CC(C)C)C(=O)N[C@H](C(=O)N[C@@H](CCC(N)=O)C(=O)N1CCC[C@H]1C(=O)N[C@@H](CCCCN)C(=O)O)[C@@H](C)CC)C(C)C)[C@@H](C)CC)[C@@H](C)O` [XPF] (H-GWASKIGQTLGKIAKVGLKELIQPK-OH), the “Modal MIC” value in test [12] was determined as 11.6 µM; in test [13], 23.2 µM; in test [1], 1.5 µM; in test [2] it was 1.5 µM; in [14], 11.6 µM; in test [15] it was 46.5 µM. The “Modal MIC” value in [16] is 46.5 µM; in [17], 46.5 µM; in test [18], 46.5 µM; in test [4], 1.5 µM; in test [5], 1.5 µM. The “Modal MIC50” value in test [6] is recorded as more than 46.5 µM; in [7], more than 46.5 µM; in test [8], more than 46.5 µM; in [9], 11.6 µM; in test [10], more than 46.5 µM. Further, the “Modal MIC90” value is more than 46.5 µM in test [6]; more than 46.5 µM in test [7]; more than 46.5 µM in test [8]; 11.6 µM in test [9]; more than 46.5 µM in test [10].
